Laboratory results reported in article PMC10824102, “Identification of small molecule inhibitors of G3BP-driven stress granule formation” (The Journal of Cell Biology, 2024).

Experiments:
[1] = system: eIF3η, PABPC1, and FXR1 puncta in U2OS cells stably expressing G3BP1-GFP; assay: Immunofluorescence of additional stress granule markers after post-addition; type: cell-based; details: 250 μM NaAsO2 for 30 min, then 50 μM compound for 5 min
Procedure: U2OS cells or U2OS cells stably expressing G3BP1-GFP were seeded in four-well Lab-Tek II Chambered Coverglass (1055360; Thermo Fisher Scientific). For preincubation experiments, cells were treated with 50 μM G3I compound for 20 min or 24 h, followed by 250 μM NaAsO2 and 50 μM G3I compound for 30 min. For posttreatment, cells were treated with 250 μM NaAsO2 for 30 min, followed by treatment with 250 μM NaAsO2 and 50 μM G3I compound for 5 min. Cells were then washed twice with PBS and fixed with 4% PFA in PBS for 10 min. Cells were then washed three times with PBS (5 min between each wash), permeabilized with 0.5% Triton X-100 in PBS for 10 min, and washed twice with PBS. Next, cells were blocked for 1 h with 3% BSA in PBS at room temperature, followed by incubation with primary antibodies diluted in 3% BSA overnight at 4°C. Cells were then washed three times with PBS (5 min between each wash) and incubated with secondary antibodies and Hoechst diluted in 3% BSA at room temperature for 1 h. Cells were then washed three times with PBS (5 min between each wash) and imaged. […]

[2] = system: stress granule formation in human iPSC-derived cortical neurons; assay: Stress granule formation in iPSC-derived cortical neurons (co-incubation); type: cell-based; details: 50 μM co-incubated with or without 500 μM NaAsO2 for 60 min
Procedure: (§1) i3N iPSC clones were gifts from Michael E. Ward (National Institutes of Health, Bethesda, MD, USA) and were used to generate a G3BP1-mNeongreen knock-in iPSC line. iPS neurons were differentiated with a two-step protocol (predifferentiation and maturation) as previously described ([Wang et al., 2017]). For predifferentiation, iPSCs were incubated with 1 µg/ml doxycycline hyclate (Sigma-Aldrich) for 3 days at a density of 1.2 × 10^6 cells/well in six-well dishes coated with Matrigel in knockout DMEM (KO-DMEM)/F12 medium (Thermo Fisher Scientific) containing N2 supplement (Thermo Fisher Scientific), non-essential amino acids (NEAA; Thermo Fisher Scientific), GlutaMAX Supplement (Thermo Fisher Scientific), and Y-27632 ([…] Technologies). The medium was changed daily and Y-27632 was removed from day 2. For maturation, predifferentiated precursor cells were dissociated, counted, and subplated at 25 × 10^4 cells/ml on dishes coated with 50 μg/ml poly-L-ornithine in BrainPhys neuronal medium ([…] Technologies) containing N2 (Thermo Fisher Scientific), B-27, 20 ng/ml BDNF (PeproTech), 20 ng/ml GDNF (PeproTech), 500 µg/ml dibutyryl cyclic-AMP (Sigma-Aldrich), 200 nM L-ascorbic acid (Sigma-Aldrich), 1 µg/ml natural mouse laminin (Thermo Fisher Scientific), 1 μM Ara-C (Sigma-Aldrich), and 1 µg/ml doxycycline hyclate. Half-medium was changed every other day. […]

[3] = molecular target: T1, NTF2L domain of G3BP1 (GFP-NTF2L) interaction with caprin 1 and USP10 (Homo sapiens, UniProt Q13283); assay: Coimmunoprecipitation of GFP-NTF2L with caprin 1 and USP10 in HEK293T lysates; type: biochemical; details: 25 and 50 μM, GFP IP
T1 construct: lysates expressing the NTF2L domain of G3BP1 (GFP-NTF2L); expressed in transfected cells; host or cells: HEK293T cells expressing GFP-NTF2L (lysate)

[4] = system: preformed stress granules in human iPSC-derived cortical neurons; assay: Dissolution of preformed stress granules in iPSC-derived cortical neurons; type: cell-based; details: 50 μM added after 30 min of 500 μM NaAsO2
Procedure: as §1

T1 sequence (Q13283 11-133 limits assumed): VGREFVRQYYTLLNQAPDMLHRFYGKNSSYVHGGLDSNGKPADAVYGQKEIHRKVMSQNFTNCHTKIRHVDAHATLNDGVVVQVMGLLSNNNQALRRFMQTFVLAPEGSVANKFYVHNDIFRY

SMILES | eIF3η, PABPC1, and FXR1 puncta [1] | spontaneous and arsenite-induced stress granule formation [2] | interaction of NTF2L domain with caprin 1 and USP10 [3] | dissolution of preformed stress granules [4]
COCCC(NC(=O)C(C)NC(=O)C(NC(=O)C(NC(=O)C(F)CC(C)(C)C)C(C)(C)O)C(C)c1ccccc1)C(=O)N(C)Cc1ccccc1 (centres unmarked) [G3Ia] | reduced eIF3η, PABPC1, and FXR1 puncta | blocked both spontaneous and arsenite-induced stress granule formation | – | –
CC(NC(=O)C(NC(=O)C(NC(=O)CCC(C)(C)C)C(C)(C)O)C(C)c1ccccc1)C(=O)N1CCCC1c1ccccc1 (centres unmarked) [G3Ib] | reduced eIF3η, PABPC1, and FXR1 puncta | – | dose-dependent reduction | nearly instantaneously dissolved stress granules
